From US9120804B2, “8-substituted 2-amino-[1,2,4] triazolo [1, 5-A] pyrazines as Syk tryrosine kinase inhibitors and GCN2 serin kinase inhibitors” (Merck Patent GmbH, priority 2012, dated 2015) come the findings set out here.

Molecules are shown by their SMILES. A value given as a limit tells only on which side of the number the result lay.

The experiment has as its target T1, SYK (Homo sapiens, UniProt P43405).
T1 construct: 2.5 nM SYK, 400 nM Biotin-Aha-Aha-KEDPDYEWPSAKK
In words: SYK flash plate assay (enzyme assay). Type of experiment: biochemical. In a few lines:
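Radiometric Flashplate format: biotinylated peptide substrate (400 nM) and 33P-labelled ATP (10 μM) react with 2.5 nM enzyme for 1 hour at 30 °C in Hepes buffer, pH 7.5. After EDTA quench and washing, counts are taken; staurosporine defines non-specific signal, and IC50 values are derived.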
As a reminder, the IC50 is the concentration at which inhibition is half-maximal. Low readings indicate higher potency, high ones lower potency. `NS(=O)(=O)c1cccc(Nc2nc3c(-c4ccccc4-c4ccccc4)nccn3n2)c1` [C13, 3-(8-Biphenyl-2-yl-[1,2,4]triazolo[1,5-a]pyrazin-2-ylamino)-benzenesulfonamide] showed an IC50 of 3000 to 50000 nM.
Compound `CC1(C)C(=O)Nc2cc(Nc3nc4c(N5CCC6(CCC(=O)N6)CC5)nccn4n3)ccc21` [E35, 8-[2-(3,3-dimethyl-2-oxo-2,3-dihydro-1H-indol-6-ylamino)-[1,2,4]triazolo[1,5-a]pyrazin-8-yl]-1,8-diaza-spiro[4.5]decan-2-one] showed an IC50 below 100 nM.
In turn, `CC1(C)C(=O)Nc2cc(Nc3nc4c(-c5ccc(N(C(F)(F)F)C(F)(F)F)cc5)nccn4n3)ccc21` [E152, 6-{8-[4-(bis-trifluoromethyl-amino)-phenyl]-[1,2,4]triazolo[1,5-a]pyrazin-2-ylamino}-3,3-dimethyl-1,3-dihydro-indol-2-one] gave an IC50 of 3000 to 50000 nM.
Then `CC1(C)C(=O)Nc2cc(Nc3nc4c(N5CCCC6(COC6)C5)nccn4n3)ccc21` [C92, 3,3-dimethyl-6-[8-(2-oxa-6-aza-spiro[3.5]non-6-yl)-[1,2,4]triazolo[1,5-a]pyrazin-2-ylamino]-1,3-dihydro-indol-2-one], with below 100 nM; and `CC1(C)C(=O)Nc2cc(Nc3nc4c(N[C@H]5CC[C@H](O)CC5)nccn4n3)ccc21` [C76, trans-6-[8-(4-hydroxy-cyclohexylamino)-[1,2,4]triazolo[1,5-a]pyrazin-2-ylamino]-3,3-dimethyl-1,3-dihydro-indol-2-one], with 300 to 3000 nM; and `COc1cc(Nc2nc3c(N4CCN(C)CC4)nccn3n2)cc(OC)c1` [C46, (3,5-dimethoxy-phenyl)-[8-(4-methyl-piperazin-1-yl)-[1,2,4]triazolo[1,5-a]pyrazin-2-yl]-amine], with 300 to 3000 nM.
Under `CC1(C)C(=O)Nc2cc(Nc3nc4c(N5C[C@H](CO)C[C@H]5c5ccccc5)nccn4n3)ccc21` (single isomer, unassigned) [E98, 6-[8-((trans2)-4-hydroxymethyl-2-phenyl-pyrrolidin-1-yl)-[1,2,4]triazolo[1,5-a]pyrazin-2-ylamino]-3,3-dimethyl-1,3-dihydro-indol-2-one] stands 100 to 300 nM; under `CC1(C)C(=O)Nc2cc(Nc3nc4c(NCCCNc5nccn6nc(Nc7ccc8c(c7)NC(=O)C8(C)C)nc56)nccn4n3)ccc21` [E117, 6-[[8-[3-[[2-[(3,3-dimethyl-2-oxo-indolin-6-yl)amino]-[1,2,4]triazolo[1,5-a]pyrazin-8-yl]amino]propylamino]-[1,2,4]triazolo[1,5-a]pyrazin-2-yl]amino]-3,3-dimethyl-indolin-2-one], 3000 to 50000 nM.
As to `CC1(C)CCNc2cc(Nc3nc4c(N5CCC6(CC5)CNC(=O)O6)nccn4n3)ccc21` [E53, 8-[2-(4,4-dimethyl-1,2,3,4-tetrahydro-quinolin-7-ylamino)-[1,2,4]triazolo[1,5-a]pyrazin-8-yl]-1-oxa-3,8-diaza-spiro[4.5]decan-2-one], the IC50 was below 100 nM.
With `CC1(C)C(=O)Nc2cc(Nc3nc4c(NC(=O)c5ccc6c(c5)NCC6)nccn4n3)ccc21` [E129, 2,3-dihydro-1H-indole-6-carboxylic acid [2-(3,3-dimethyl-2-oxo-2,3-dihydro-1H-indol-6-ylamino)-[1,2,4]triazolo[1,5-a]pyrazin-8-yl]-amide], the IC50 was 300 to 3000 nM.
In the case of `c1ccc(-c2ccccc2-c2nccn3nc(Nc4cccc(N5CCOCC5)c4)nc23)cc1` [C17, (8-Biphenyl-2-yl-[1,2,4]triazolo[1,5-a]pyrazin-2-yl)-(3-morpholin-4-yl-phenyl)-amine], the concentration for half-maximal inhibition (IC50) was in the range of 300 to 3000 nM.
Consider `CC1(C)C(=O)Nc2cc(Nc3nc4c(N5CC[C@@]6(O)CCCC[C@H]6C5)nccn4n3)ccc21` [E136, 6-[8-((4aS,8aS)-4a-hydroxy-octahydro-isoquinolin-2-yl)-[1,2,4]triazolo[1,5-a]pyrazin-2-ylamino]-3,3-dimethyl-1,3-dihydro-indol-2-one], for which the IC50 is below 100 nM.
The compound `CC1(C)C(=O)Nc2cc(Nc3nc4c(NCCCN)nccn4n3)ccc21` [E122, 6-[8-(3-amino-propylamino)-[1,2,4]triazolo[1,5-a]pyrazin-2-ylamino]-3,3-dimethyl-1,3-dihydro-indol-2-one] came in with an IC50 of 300 to 3000 nM.
In turn, `CC1(C)C(=O)Nc2cc(Nc3nc4c(N5CC6C(=O)NC(=O)C6C5)nccn4n3)ccc21` (centres unmarked) [E33, 5-[2-(3,3-dimethyl-2-oxo-2,3-dihydro-1H-indol-6-ylamino)-[1,2,4]triazolo[1,5-a]pyrazin-8-yl]-tetrahydro-pyrrolo[3,4-c]pyrrole-1,3-dione] yielded an IC50 of 100 to 300 nM.
`CN(C)CC1(O)CCCN(c2nccn3nc(Nc4ccc5c(c4)NC(=O)C5(C)C)nc23)CC1` (centres unmarked) [E138, 6-[8-(4-dimethylaminomethyl-4-hydroxy-azepan-1-yl)-[1,2,4]triazolo[1,5-a]pyrazin-2-ylamino]-3,3-dimethyl-1,3-dihydro-indol-2-one] gave an IC50 of 100 to 300 nM.
Turning to `CC1(C)C(=O)Nc2cc(Nc3nc4c(N5CCC6(CNC(=O)C6)C5)nccn4n3)ccc21` (centres unmarked) [E20, 3,3-dimethyl-6-[8-(8-oxo-2,7-diaza-spiro[4.4]non-2-yl)-[1,2,4]triazolo[1,5-a]pyrazin-2-ylamino]-1,3-dihydro-indol-2-one], the IC50 is below 100 nM.
On to `CC1(C)C(=O)Nc2cc(Nc3nc4c(N5CCCC5c5ccccc5)nccn4n3)ccc21` (centres unmarked) [C100, 3,3-dimethyl-6-[8-(2-phenyl-pyrrolidin-1-yl)-[1,2,4]triazolo[1,5-a]pyrazin-2-ylamino]-1,3-dihydro-indol-2-one], for which the 50% inhibitory concentration (IC50) fell in the range of 300 to 3000 nM.
Then `CC(C)(O)c1ccc(Nc2nc3c(N4CCCCCC4)nccn3n2)cc1N` [E125, 2-[2-amino-4-(8-azepan-1-yl-[1,2,4]triazolo[1,5-a]pyrazin-2-ylamino)-phenyl]-propan-2-ol], with below 100 nM; and `CC1(C)C(=O)Nc2cc(Nc3nc4c(N(CCO)C5CCNCC5)nccn4n3)ccc21` [C93, 6-{8-[(2-hydroxy-ethyl)-piperidin-4-yl-amino]-[1,2,4]triazolo[1,5-a]pyrazin-2-ylamino}-3,3-dimethyl-1,3-dihydro-indol-2-one], with 300 to 3000 nM; and `Cn1cc(-c2nccc3nc(Nc4ccc5c(c4)NC(=O)CCC5(C)C)nn23)cn1` [E155, 5,5-dimethyl-8-[5-(1-methyl-1H-pyrazol-4-yl)-[1,2,4]triazolo[1,5-c]pyrimidin-2-ylamino]-1,3,4,5-tetrahydro-benzo[b]azepin-2-one], with below 100 nM.
With `CC1(C)C(=O)Nc2cc(Nc3nc4c(N5CCc6ccc(N)cc65)nccn4n3)ccc21` [E102, 6-[8-(6-amino-2,3-dihydro-indol-1-yl)-[1,2,4]triazolo[1,5-a]pyrazin-2-ylamino]-3,3-dimethyl-1,3-dihydro-indol-2-one], the IC50 was below 100 nM.
Then `CC1(C)C(=O)Nc2cc(Nc3nc4c(N5CCCC6(C5)NC(=O)NC6=O)nccn4n3)ccc21` (centres unmarked) [C110, 7-[2-(3,3-dimethyl-2-oxo-2,3-dihydro-1H-indol-6-ylamino)-[1,2,4]triazolo[1,5-a]pyrazin-8-yl]-1,3,7-triaza-spiro[4.5]decane-2,4-dione], with 300 to 3000 nM; and `CC1(C)C(=O)Nc2cc(Nc3nc4c(N5CCC(S(N)(=O)=O)CC5)nccn4n3)ccc21` [E39, 1-[2-(3,3-dimethyl-2-oxo-2,3-dihydro-1H-indol-6-ylamino)-[1,2,4]triazolo[1,5-a]pyrazin-8-yl]-piperidine-4-sulfonic acid amide], with below 100 nM; and `CC1(C)CC(=O)Nc2cc(Nc3nc4c(N5CC[C@@]6(CC(=O)NC6=O)C5)nccn4n3)ccc21` [E48, (R)-7-[2-(4,4-dimethyl-2-oxo-1,2,3,4-tetrahydro-quinolin-7-ylamino)-[1,2,4]triazolo[1,5-a]pyrazin-8-yl]-2,7-diaza-spiro[4.4]nonane-1,3-dione], with below 100 nM.
Under `CC1Cc2ccccc2N1c1nccn2nc(Nc3ccc4c(c3)NC(=O)C4(C)C)nc12` (centres unmarked) [E137, 3,3-dimethyl-6-[8-(2-methyl-2,3-dihydro-indol-1-yl)-[1,2,4]triazolo[1,5-a]pyrazin-2-ylamino]-1,3-dihydro-indol-2-one] stands below 100 nM; under `CC1(C)C(=O)Nc2cc(Nc3nc4c(N5CCCCC5)nccn4n3)ccc21` [E69, 3,3-dimethyl-6-(8-piperidin-1-yl-[1,2,4]triazolo[1,5-a]pyrazin-2-ylamino)-1,3-dihydro-indol-2-one], below 100 nM; under `Cn1cc(-c2nccn3nc(Nc4ccc5c(c4)NCCC5(C)C)nc23)cn1` [E21, (4,4-dimethyl-1,2,3,4-tetrahydro-quinolin-7-yl)-[8-(1-methyl-1H-pyrazol-4-yl)-[1,2,4]triazolo[1,5-a]pyrazin-2-yl]-amine], below 100 nM.
Under `CC(C)(OC(O)C(F)(F)F)c1ccc(Nc2nc3c(N4CCCCCC4)nccn3n2)cc1N` (centres unmarked) [E127, 1-{1-[2-amino-4-(8-azepan-1-yl-[1,2,4]triazolo[1,5-a]pyrazin-2-ylamino)-phenyl]-1-methyl-ethoxy}-2,2,2-trifluoro-ethanol] stands 300 to 3000 nM; under `CC1(C)C(=O)Nc2cc(Nc3nc4c(NC5CCCNC5)nccn4n3)ccc21` (centres unmarked) [C77, 3,3-dimethyl-6-[8-(piperidin-3-ylamino)-[1,2,4]triazolo[1,5-a]pyrazin-2-ylamino]-1,3-dihydro-indol-2-one], below 100 nM; under `CC1(C)C(=O)Nc2cc(Nc3nc4c(N5CCc6nc(N)ncc6C5)nccn4n3)ccc21` [E56, 6-[8-(2-amino-7,8-dihydro-5H-pyrido[4,3-d]pyrimidin-6-yl)-[1,2,4]triazolo[1,5-a]pyrazin-2-ylamino]-3,3-dimethyl-1,3-dihydro-indol-2-one], below 100 nM.
As to `CC1(C)C(=O)Nc2cc(Nc3nc4c(-c5cnn(C(C)(C)C)c5)nccn4n3)ccc21` [E140, 6-[8-(1-tert-butyl-1H-pyrazol-4-yl)-[1,2,4]triazolo[1,5-a]pyrazin-2-ylamino]-3,3-dimethyl-1,3-dihydro-indol-2-one], the IC50 is below 100 nM.
`CC1(C)C(=O)Nc2cc(Nc3nc4c(-c5cnoc5)nccn4n3)ccc21` [E149, 6-(8-isoxazol-4-yl-[1,2,4]triazolo[1,5-a]pyrazin-2-ylamino)-3,3-dimethyl-1,3-dihydro-indol-2-one] had an IC50 below 100 nM.
